Article PMC7497679, “Structure-based design, synthesis, and evaluation of the biological activity of novel phosphoroorganic small molecule IAP antagonists” (Investigational New Drugs, 2020)
Read-outs that look alike come from different tables or passages of the source. Square brackets hold non-standard residues; d marks the D form. Ends that are not written are not given here. Chg = N[C@H](C(=O)O)C1CCCCC1; NMeA = CN[C@@H](C)C(=O)O

Biological target: T1, XIAP BIR3 domain (Homo sapiens, UniProt P98170)
T1 construct: fluorescent probe 4 and the XIAP BIR3 domain (Sino Biological, Beijing, China) were used for all measurements; purchased Sino Biological, Beijing, China
Experiment: Fluorescence polarization inhibition (competition) assay
Format: binding
Conditions: for inhibition at 50 µM: 0.5 h, antagonist 50 µM, inhibition of protein-probe interaction; for Ki / EC50: XIAP BIR3 50 nM, fluorescent probe 4 2 nM; for interaction with the XIAP BIR3 domain (in words): fluorescence polarization
Method: The fluorescence polarization assay was performed at r.t. in Corning 384-well black, polystyrene flat bottom plates (Corning, NY, USA) on a Synergy H4 Hybrid Reader (BioTek, Bad Friedrichshall, Germany). For fluorescence polarization measurements, (milipolarization units, mP) 484/20 nm excitation and 528/20 nm emission filters were selected. Phosphate buffer (pH 7.5) supplemented with γ-globulin (100 µg/mL) and NaN3 (0.02% w/v), fluorescent probe 4 and the XIAP BIR3 domain (Sino Biological, Beijing, China) were used for all measurements. All experiments were performed in duplicate. The obtained fluorescence polarization assay data were analyzed with Prism 5.0 Software (GraphPad Software, San Diego, ca.).
After a 15 min incubation at r.t., fluorescent probe 4 (2 nM) was added. The values were measured 30 min after the moment the probe was added. The assay was performed in phosphate buffer with a final DMSO concentration of 1.4% (v/v). […] In order to evaluate the quality and precision of the performed screening assay, we determined the Z´ factor as described by Zhang et al.. The obtained fluorescence polarization values were used to determine the percent inhibition, which was plotted as a function of the protein concentration. The EC50 and Ki values were calculated with GraphPad software (log(agonist) vs. response (variable slope) model) in combination with the web tool developed by Nikolovska-Coleska et al..
Fluorescence polarization inhibition assay and data analysis for 41m and 42m compounds was performed as described in the Material and Methods section of the manuscript. Briefly, 50 nM solution of the BIR3 XIAP protein in polarization buffer was added into phosphoroorganic compound solution (from 50 μM to 0.0537 nM). After 15 min incubation at r.t. the fluorescent probe 4 (2 nM) was added.
The values were read after 30 minutes from the moment the probe was added. The obtained fluorescence polarization values were used to determine the percentage of inhibition which was plotted as a function of the protein concentration (Supplementary Figure S4).
(1 picture or pasted object on this page, not shown here)

T1 sequence (P98170 252-356 limits assumed): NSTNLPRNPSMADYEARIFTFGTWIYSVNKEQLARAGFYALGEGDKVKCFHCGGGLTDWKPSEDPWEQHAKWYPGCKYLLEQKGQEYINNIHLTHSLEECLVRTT

Row | Compound | inhibition at 50 µM | Ki | EC50 (read-out: EC50) | EC50 (read-out: log EC50 (converted)) | interaction with the XIAP BIR3 domain (in words)
1 | CN[C@@H](C)C(=O)N[C@H](C(=O)N1CCC[C@H]1C(=O)NCP(=O)(c1cc(C)cc(C)c1)c1cc(C)cc(C)c1)C(C)C [Compound 20, (S)-N-((bis(3,5-dimethylphenyl)phosphoryl)methyl)-1-((S)-3-methyl-2-((S)-2-(methylamino)propanamido)butanoyl)pyrrolidine-2-carboxamide] | 50% | 23.8 µM | 48 µM | 48 µM | –
2 | CN[C@@H](C)C(=O)N[C@H](C(=O)N1CCC[C@H]1C(=O)NCP(=O)(c1cc(C)cc(C)c1)c1cc(C)cc(C)c1)C1CCCCC1 [Compound 21] | 74.4% | 11.2 µM | 22.5 µM | 22.5 µM | –
3 | CN[C@@H](C)C(=O)N[C@H](C(=O)N1CCC[C@H]1C(=O)NC(C)P(=O)(c1cc(C)cc(C)c1)c1cc(C)cc(C)c1)C(C)C (stereo partly drawn) [Compound 22] | 59.2% | 16.1 µM | 32.5 µM | 32.4 µM | –
4 | CCc1ccc(OP(=O)(Oc2ccc(CC)cc2)C(C)NC(=O)[C@@H]2CCCN2C(=O)[C@@H](NC(=O)[C@H](C)NC)C(C)C)cc1 (stereo partly drawn) [Compound 23] | 64.1% | 17 µM | 34.2 µM | 34.3 µM | –
5 | CCc1ccc(OP(=O)(Oc2ccc(CC)cc2)C(C)NC(=O)[C@@H]2CCCN2C(=O)[C@@H](NC(=O)[C@H](C)NC)C2CCCCC2)cc1 (stereo partly drawn) [Compound 24] | 74.1% | 10.2 µM | 20.5 µM | 20.6 µM | –
6 | CN[C@@H](C)C(=O)N[C@H](C(=O)N1CCC[C@H]1C(=O)NC(C)P(=O)(Oc1ccc(C(C)C)cc1)Oc1ccc(C(C)C)cc1)C(C)C (stereo partly drawn) [Compound 25] | 81.8% | 10.9 µM | 22 µM | 22 µM | –
7 | CN[C@@H](C)C(=O)N[C@H](C(=O)N1CCC[C@H]1C(=O)NC(C)P(=O)(Oc1ccc(C(C)C)cc1)Oc1ccc(C(C)C)cc1)C1CCCCC1 (stereo partly drawn) [Compound 26] | 85.8% | 9.84 µM | 19.8 µM | 19.8 µM | –
8 | CN[C@@H](C)C(=O)N[C@H](C(=O)N1CCC[C@H]1C(=O)NC(C)P(=O)(Oc1ccc(C(C)(C)C)cc1)Oc1ccc(C(C)(C)C)cc1)C(C)C (stereo partly drawn) [Compound 27, bis(4-(tert-butyl)phenyl) (1-((S)-1-((S)-3-methyl-2-((S)-2-(methylamino)propanamido)butanoyl)pyrrolidine-2-carboxamido)ethyl)phosphonate] | 83.3% | 10.5 µM | 21.3 µM | 21.3 µM | –
9 | CN[C@@H](C)C(=O)N[C@H](C(=O)N1CCC[C@H]1C(=O)NC(C)P(=O)(Oc1ccc(C(C)(C)C)cc1)Oc1ccc(C(C)(C)C)cc1)C1CCCCC1 (stereo partly drawn) [Compound 28, bis(4-(tert-butyl)phenyl) (1-((S)-1-((S)-2-cyclohexyl-2-((S)-2-(methylamino)propanamido)acetyl)pyrrolidine-2-carboxamido)ethyl)phosphonate] | 77.3% | 13.3 µM | 26.8 µM | 26.7 µM | –
10 | CN[C@@H](C)C(=O)N[C@H](C(=O)N1CCC[C@H]1C(=O)NC(C)P(=O)(Oc1ccccc1)Oc1ccccc1)C(C)C (stereo partly drawn) [Compound 29, diphenyl (1-((S)-1-((S)-3-methyl-2-((S)-2-(methylamino)propanamido)butanoyl)pyrrolidine-2-carboxamido)ethyl)phosphonate] | 62.1% | 15.8 µM | 31.9 µM | 31.8 µM | –
11 | CN[C@@H](C)C(=O)N[C@H](C(=O)N1CCC[C@H]1C(=O)NC(C)P(=O)(Oc1ccccc1)Oc1ccccc1)C1CCCCC1 (stereo partly drawn) [Compound 30, diphenyl (1-((S)-1-((S)-2-cyclohexyl-2-((S)-2-(methylamino)propanamido)acetyl)pyrrolidine-2-carboxamido)ethyl)phosphonate] | 69% | 15 µM | 30.2 µM | 30.3 µM | –
12 | CCC(NC(=O)[C@@H]1CCCN1C(=O)[C@@H](NC(=O)[C@H](C)NC)C(C)C)P(=O)(Oc1ccccc1)Oc1ccccc1 (stereo partly drawn) [Compound 31, diphenyl (1-((S)-1-((S)-3-methyl-2-((S)-2-(methylamino)propanamido)butanoyl)pyrrolidine-2-carboxamido)propyl)phosphonate] | 57% | 18.8 µM | 38 µM | 38 µM | –
13 | CCC(NC(=O)[C@@H]1CCCN1C(=O)[C@@H](NC(=O)[C@H](C)NC)C1CCCCC1)P(=O)(Oc1ccccc1)Oc1ccccc1 (stereo partly drawn) [Compound 32, diphenyl (1-((S)-1-((S)-2-cyclohexyl-2-((S)-2-(methylamino)propanamido)acetyl)pyrrolidine-2-carboxamido)propyl)phosphonate] | 71% | 11.9 µM | 24 µM | 24 µM | –
14 | CN[C@@H](C)C(=O)N[C@H](C(=O)N1CCC[C@H]1C(=O)NC(C(C)C)P(=O)(Oc1ccccc1)Oc1ccccc1)C(C)C (stereo partly drawn) [Compound 33, diphenyl (2-methyl-1-((S)-1-((S)-3-methyl-2-((S)-2-(methylamino)propanamido)butanoyl)pyrrolidine-2-carboxamido)propyl)phosphonate] | 58.5% | 17.4 µM | 35 µM | 34.9 µM | –
15 | CN[C@@H](C)C(=O)N[C@H](C(=O)N1CCC[C@H]1C(=O)NC(C(C)C)P(=O)(Oc1ccccc1)Oc1ccccc1)C1CCCCC1 (stereo partly drawn) [Compound 34] | 70.5% | 11.8 µM | 23.9 µM | 23.9 µM | –
16 | CCC(C)C(NC(=O)[C@@H]1CCCN1C(=O)[C@@H](NC(=O)[C@H](C)NC)C(C)C)P(=O)(Oc1ccccc1)Oc1ccccc1 (stereo partly drawn) [Compound 35] | 77.4% | 8.84 µM | 17.8 µM | 17.8 µM | –
17 | CCC(C)C(NC(=O)[C@@H]1CCCN1C(=O)[C@@H](NC(=O)[C@H](C)NC)C1CCCCC1)P(=O)(Oc1ccccc1)Oc1ccccc1 (stereo partly drawn) [Compound 36] | 81.4% | 8.05 µM | 16.2 µM | 16.3 µM | –
18 | CN[C@@H](C)C(=O)N[C@H](C(=O)N1CCC[C@H]1C(=O)NC(CC(C)C)P(=O)(Oc1ccccc1)Oc1ccccc1)C(C)C (stereo partly drawn) [Compound 37] | 67.4% | 14 µM | 28.1 µM | 28.1 µM | –
19 | CN[C@@H](C)C(=O)N[C@H](C(=O)N1CCC[C@H]1C(=O)NC(CC(C)C)P(=O)(Oc1ccccc1)Oc1ccccc1)C1CCCCC1 (stereo partly drawn) [Compound 38] | 84.2% | 5.25 µM | 10.6 µM | 10.6 µM | –
20 | CN[C@@H](C)C(=O)N[C@H](C(=O)N1CCC[C@H]1C(=O)NC(CCSC)P(=O)(Oc1ccccc1)Oc1ccccc1)C(C)C (stereo partly drawn) [Compound 39] | 65.8% | 13 µM | 26.2 µM | 26.2 µM | –
21 | CN[C@@H](C)C(=O)N[C@H](C(=O)N1CCC[C@H]1C(=O)NC(CCSC)P(=O)(Oc1ccccc1)Oc1ccccc1)C1CCCCC1 (stereo partly drawn) [Compound 40, diphenyl (1-((S)-1-((S)-2-cyclohexyl-2-((S)-2-(methylamino)propanamido)acetyl)pyrrolidine-2-carboxamido)-3-(methylthio)propyl)phosphonate] | 73.8% | 13 µM | 26.3 µM | 26.3 µM | –
22 | CN[C@@H](C)C(=O)N[C@H](C(=O)N1CCC[C@H]1C(=O)NC(CCc1ccccc1)P(=O)(Oc1ccccc1)Oc1ccccc1)C(C)C (stereo partly drawn) [Compound 43] | 85.4% | – | 17.2 µM | 17.2 µM | –
23 | CN[C@@H](C)C(=O)N[C@H](C(=O)N1CCC[C@H]1C(=O)NC(CCc1ccccc1)P(=O)(Oc1ccccc1)Oc1ccccc1)C1CCCCC1 (stereo partly drawn) [Compound 44, diphenyl (1-((S)-1-((S)-2-cyclohexyl-2-((S)-2-(methylamino)propanamido)acetyl)pyrrolidine-2-carboxamido)-3-phenylpropyl)phosphonate] | 86.5% | 7.57 µM | 15.3 µM | 15.3 µM | –
24 | [NMeA]-Val-Pro-OH [Compound 1] | – | – | – | – | did not interact with the XIAP BIR3 domain at a significant level
25 | [NMeA]-[Chg]-Pro-OH [Compound 2] | – | – | – | – | did not interact with the XIAP BIR3 domain at a significant level
